In paper PMC13252604, “First Generation Proteolysis Targeting Chimeras (PROTACs) for the Treatment of Progeria” (Advanced Science, 2026):

What was measured:
Stability in mouse serum = assay type: in vitro ADME
Description: TABLE 1 Pharmacokinetic parameters of PROTAC 2. | column: Stability (hours) ^b / m‐serum

[1] = system: Lmna^G609G/G609G fibroblasts; experiment: RT-qPCR of senescence markers in mouse progeroid cells; assay type: cell-based; conditions: 5 µM
Description: Confocal fluorescence microscopy images are representative of 2 independent experiments. […] Representative cropped immunoblots are shown. […] MW, molecular weight (in kDa) markers. (C) PROTAC 2 decreases senescence‐associated β‐galactosidase (SA‐βgal) activity, interleukin (IL) 1α and p16 senescent markers. Lmna^G609G/G609G (G609G) or Lmna^+/+ (WT) fibroblasts were incubated with vehicle or compound 2 (5 µM). […] Data were analysed using one‐way ANOVA followed by Dunnett's post–hoc test. ^*, p < 0.05; ^**, p < 0.01, ^***, p < 0.001, ^****, p < 0.0001 vs G609G cells. […]
(§1) ferrocyanide, 0.6 mL 5 M NaCl, 0.2 mL 0.2 M MgCl2, (all from Sigma Aldrich) and 6.2 mL of deionized water in a total volume of 20 mL] in the dark in a humidified incubator at 37 °C for 24 h without CO2 supply. Then, an equal volume of the supernatant of each well was transferred to a new 96-well plate for fluorescence measurement. The resultant production of fluorescein was measured using a FluoStar Optima instrument (BMG Labtech) with an excitation of 485 nm and emission at 535 nm. […]
Total RNA was extracted by RNAeasy Mini Kit (Qiagen) according to the manufacturer instructions and subsequently quantified using the NanoPhotometer N60 (Implen). […] Quantitative real-time PCR was run in the QuantStudio 7FLEX (Applied Biosystems) system and results were normalized according to β-actin quantification. […]

[2] = system: HGADFN167 Lmna^G608G/G608G fibroblasts; experiment: Oxygen consumption rates (OCR) measurement; assay type: cell-based, human; conditions: HGADFN167, 5 µM, 20 days
Description: FIGURE 6 (A) Representative cropped immunoblots and progerin quantification in human Lmna^G608G/G608G fibroblasts. MW, molecular weight (in kDa) markers. […] (B) PROTAC 2 increases cell proliferation (upper panels) and decreases the number of misshapen nuclei (lower panels). White arrows highlight selected misshapen nuclei. (C) PROTAC 2 decreases senescence‐associated β‐galactosidase (SA‐βgal) activity, interleukin (IL) 6, p16 and p21 senescent markers. Bar graphs show mean±sem of 2 (SA‐βgal and p21) or 3 (IL‐6 and p16) independent experiments performed in triplicate. (D) PROTAC 2 decreases phosphorylated histone 2AX (pH2AX) and increases trimethylated histone 3 (H3K9Me3) levels. (E) PROTAC 2 increases the oxygen consumption rate (OCR), ATP production and the number of healthy mitochondria in human progeroid cells. Bar graphs show mean±sem of 2 independent experiments performed in duplicate. […] Data were analysed using one‐way ANOVA followed by Dunnett's post–hoc test vs vehicle (panel A) or vs G608G cells (panels B‐E). ^*, p < 0.05; ^**, p < 0.01; ^***, p < 0.001; ^****, p < 0.0001. […]
Mitochondria were evaluated for the integrity of the membrane, matrix and cristae, and were classified as mitochondria with normal morphology (black arrows) or damaged mitochondria (red arrows, with alterations in the membrane, presence of inclusions in the matrix and concentric cristae or “onion-like” mitochondria). […]
as §1
Total RNA was extracted by RNAeasy Mini Kit (Qiagen) according to the manufacturer instructions and subsequently quantified using the NanoPhotometer N60 (Implen). […]

CC1(C)Oc2cc3oc(=O)ccc3cc2C[C@@H]1OC(=O)CCCCCNc1cccc2c1C(=O)N(C1CCC(=O)NC1=O)C2=O (stereo partly drawn) [compound 2]
Stability (hours) m‐serum (Stability in mouse serum): 0.28 ± 0.02 h
interleukin (IL) 1α senescent marker [1]: significantly reduced
p16 senescent marker [1]: significantly reduced
ATP production [2]: enhances
basal respiration [2]: enhances
oxygen consumption rate (OCR) [2]: enhances OCR in human progeroid cells
